Patent US20070269531A1, “Non-Steroid Anti-Inflammatory Agents with Vitamins, Minerals, and Dietary Supplements for the Prevention and Treatment of Primary, Secondary and Tertiary Cancer” (priority 2004, published 2007)
Values joined by “and” are separate entries in the source; they are usually repeats but may differ in a detail not shown here. Equal entries are not always repeated. Where two headings read alike, the source gives them in different places.

Experiments:
[1] = meta-analysis (Lewis et al., 2002); cited from earlier work
MC-26 tumor [2] = conditions: for overall survival rate: day 50
Method: Starting on day 7 after tumor cell inoculation, mice were randomly divided into eight groups as follow:
Group 1: control; control chow; 0.9% NaCl injected intraperitoneally (IP) on days 9, 11, 15, 18, 23, and 28; and 5% IP glucose on days 8, 12, 15, 19, 22, and 25.
Group 4: irinotecan alone; control chow; irinotecan 30 mg/kg on days 8, 12, 15, 19, 22, and 25; and 0.9% NaCl on days 9, 11, 15, 18, 23, and 28.
The date and number of animal in each group were recorded for survival analysis.

[3] = test system: CD31 positive microvessels; assay: CD31 microvessel immunohistochemistry of tumor sections; format: in vivo, mouse; conditions: P=0.059
Method: To assess anigiogenesis in tumor tissues, frozen sections were made and microvessels were stained with anti-mouse CD31 mnonocolonal antibodies (BD transduction laboratories). The specimens were incubated with secondary antibody for 1 h at 37° C. and stained by the avidin-biotin peroxide complex (ABC) method using an ABC staining kit (Santa Cruz Biotech, Santa Cruz, Calif.). They were visualized by 3,3′-diammobenzidme (DAB) and counlterstained with hematoxyhn.

HUVECs = assay: In vitro angiogenesis (tube formation) assay; format: cell-based, human; conditions: 1000 μM
Method: An in vitro anigiogenesis assay was performed according to the protocol provided by manufacturer (Chemicon, Temecula, Calif.) and described previously ([…] et al., 2004; […] et al., 2004). […] Microscopic digital images were taken, and cumulative tube length was measured using SpotTM3.5.6.

HUVEC = HUVEC cell proliferation (MTT); format: cell-based, human; conditions: 1000 μM, 24 h
Method: (§1) The transplantable mouse CRC cell line MC-26 (Singh et al., 1986) was obtained from Dr. K. K. Tanabe (Massachusetts General Hospital, Boston, Mass.), and the human colorectal adenocarcinoma cell line HT 29 was obtained from ATCC. MC-26 cells and HT-29 were maintained in Dulbecco's modified Eagle's medium (DMEM; Life Technologies, Inc, Gaithersburg, Md.) and McCoy's 5A medium, respectively, supplemented with 10% fetal calf sertum plus antibiotics at 37° C. in a humidified atmosphere of 95% air/5% C02. Human umbilical vein endothelial cells (HUVECs) was purchased from Canibrex (Walkersville, Md.) and maintained in EGM-2 medium (Cambrex).
(§2) In Vitro cell proliferation was assessed using a CellTiter 96®AQ One Solution Cell Proliferation Assay kit (Promega). 1-3×10^4 cells/ml were plated in 96-well microtiter plates and incubated overnight. […] 20 μl of MTS tetrazolium solution were added to each well, and the cells were further incubated at 37° C. for 1 h, at which time the reactions were stopped by the addition of 10% SDS. The absorbance at wavelength 490 nm was measured using an EX800 microplate reader (Bio-Tek, Highland, Wis.).

[4] = cited from earlier work
HT-29 tumor = assay: HT-29 human xenograft CRC model in nude mice; conditions: throughout the period of investigation
MC-26 tumor [5] = assay: Subcutaneous MC-26 tumor model, single agent
HT-29 cells = assay: In vitro cell proliferation assay (MTT), HT-29; format: cell-based, human; conditions: HT-29, 1000 μM, 72 h
Method: as §1, §2

[6] = Plasma ibuprofen concentration in mice fed ibuprofen chow; format: in vivo, mouse; conditions: mice fed chow containing 1360 mg/kg; blood on days 7 and 14
Method: Ibuprofen was purchased from Sigma, and pellet-formed chow containing ibuprofen was prepared by Harlan Teklad (Madison, Wis.). Blood was drawn on day 7 and 14 by tail bleeding, and serum was separated from the whole blood and frozen at −70° C. until analysis.
The plasma samples were analyzed by a quantified liquid chromatography-tandem mass spectrometry (LC/MS/MS) method. Sample preparation was performed using protein precipitation.
A […] aliquot of internal standard working solution (3000 ng/mL of Phenacetin I.S. in acetonitrile) was added to 25 μL of plasma. Each sample was then vortexed and centrifuged for 15 min at a speed of 13,000 rpm at 4° C.
After centrifugation, 150 μL of the supernatant was transferred into an HPLC vial, and aliquots of 5 μL were injected using a Perkin Elmer 200 Series autosampler (Perkin Elmer: Norwalk Conn.). The loading and analytical columns were a Zorbax Extend C18 (4.6×12.5 mm, 5 μdp; Agilent Technologies: Palo Alto, Calif.) and a Waters Xterra C 18 (3.9×20 mm, 3.5 μdp; Waters Corporation: Milfaird, Mass.), respectively. […] The column effluent was analyzed by selected reaction monitoring using a triple quadruple mass spectrometer (Micromass Quattro Ultima; Manchester, UK) equipped with an electrospray ion source operating in negative ion mode.

MC-26 cells = assay: In vitro cell proliferation assay (MTT), MC-26; format: cell-based, mouse; conditions: 72 h
Method: as §1
In Vitro cell proliferation was assessed using a CellTiter 96®AQ One Solution Cell Proliferation Assay kit (Promega). 1-3×10^4 cells/ml were plated in 96-well microtiter plates and incubated overnight. […]

MC-26 cell PGE2 levels = assay: Prostaglandin E2 ELISA, MC-26 conditioned medium; format: cell-based, mouse; conditions: MC-26 cells, 1000 μM, 24 h
Method: as §1
(§3) Prostaglandin E2 (PGE2), the major metabolite of arachidonic acid metabolism, was measured by ELISA (Cayman Chemical, Ami Arbor, Mich.), using conditional cell culture medium, according to the protocol provided by manufacturer. Measurements were made in triplicate in separate experiments.

MC-26 liver metastasis = assay: Experimental liver metastasis model (subsplenic MC-26 injection); format: in vivo, mouse; conditions: 1360 mg/kg chow for 14 days
Method: The incidence and extent of liver metastasis were then recorded.

[7] = Gross necroscopic examination for GI mucosal injury; format: in vivo, mouse; conditions: mice consuming chow containing ibuprofen
HT-29 cells PGE2 levels = assay: Prostaglandin E2 ELISA, HT-29 conditioned medium; format: cell-based, human; conditions: 24 h
Method: as §1, §3

For `O=C(O)Cc1ccccc1Nc1c(Cl)cccc1Cl` [diclofenac], the “odds ratio, serious upper GI bleeding” value [1] is given as 4.9.

With `O=c1[nH]cc(F)c(=O)[nH]1` [5-FU, Fluorouracil] the overall survival rate (MC-26 tumor [2]; 5-FU given with leucovorin) was 30% and the tumor volume (MC-26 tumor [2]; treatment day 7 to 28, 5-FU given with leucovorin, control 1491.3±862) was 499±234 mm^3.

For `CN1C(C(=O)Nc2ccccn2)=C(O)c2ccccc2S1(=O)=O` [piroxicam], the “odds ratio, serious upper GI bleeding” value [1] is listed as 13.1.

With `CCc1c2c(nc3ccc(OC(=O)N4CCC(N5CCCCC5)CC4)cc13)-c1cc3c(c(=O)n1C2)COC(=O)[C@]3(O)CC` [CPT-11, Irinotecan] the average body weight (MC-26 tumor [2]; day 28, average over the named groups, control 19.65±1.24) was 23.1 ± 1.72 g, the overall survival rate (MC-26 tumor [2]; 5-FU given with leucovorin) was 80% and the “survival compared to control mice and other regimens” value (MC-26 tumor [2]; mouse, in vivo) was “significantly prolonged”.

In the case of `COc1ccc2cc([C@H](C)C(=O)O)ccc2c1` [naproxen], the “odds ratio, serious upper GI bleeding” value [1] is given as 9.1.

For `CC(C)Cc1ccc(C(C)C(=O)O)cc1` (stereo not drawn) [ibuprofen], the “reduction in number of microvessels” value [3] was ~30%, the “reduction in tube length” value (HUVECs; 6 h) was 40% and the tube length (HUVECs; 6 h, control 155.4±21.3) was 94.0±24.9 μm. For the same compound, the “reduction in tube length” value (HUVECs; 24 h) was 88%, the tube length (HUVECs; 24 h, control 76.2±13.5) was 9.40±6.95 μm and the “MTT levels diminished compared to control” value (HUVEC) was “approximately 80%”. The “plasma ibuprofen peak concentration” value ([4]; 300 mg capsule, fasting humans (Halsas et al., 1999)) was “approximately 27,000 ng/ml”, the “peak plasma concentration (Cmax)” value ([4]; healthy humans, long-term high-dose 14 mg/kg) was 65,000 ng/ml and the Cmax ([4]; healthy humans, low dose 2.6 mg/kg) was 15,800 ng/ml. For the same compound, the Cmax ([4]; healthy humans, moderate dose 7 mg/kg) was 34,000 ng/ml, the “peak plasma ibuprofen concentration” value ([4]; single dose of 300 mg, humans (Halsas et al., 1999)) was ≥ 27,000 ng/mil and the “body weight vs control” value (HT-29 tumor) was “no significant difference in body weight”. The tumor growth inhibited (MC-26 tumor [5]; chow containing 1360 ppm, summary over mouse and human CRC models) was 40-82%, the average body weight (MC-26 tumor [5]; day 21, control 20.3±2.6) was 24.1 ± 1.73 g and the “MTT levels diminished compared to control” value (HT-29 cells) was 26.7%. For the same compound, the plasma ibuprofen concentration [6] was ~18,760±7,270 ng/ml and ~20,978±5,966 ng/ml, the “decrease in MC-26 cell proliferation” value (MC-26 cells; 125 μM) was 1.3% and the “decrease in MC-26 cell proliferation” value (MC-26 cells; 250 μM) was 5.8%. The “decrease in MC-26 cell proliferation” value (MC-26 cells; 500 μM) was 11.3%, the “decrease in MC-26 cell proliferation” value (MC-26 cells; 1000 μM) was 39.8% and the “PGE2 levels diminished compared to control” value (MC-26 cell PGE2 levels) was 70.1%. The PGE2 level (MC-26 cell PGE2 levels; control 268.5) was 80.0 pg/mL, the “liver metastases vs control” value (MC-26 liver metastasis) was “more prevalent and larger in the control group” and the “liver metastases vs control” value (MC-26 liver metastasis; listed as IB) was “Fewer liver metastases”. For the same compound, the “gastroduodenal / GI mucosal injury” value [7] was “no evidence of gastroduodenal mucosal injury”, the “gastroduodenal / GI mucosal injury” value ([7]; listed as Ibuprofen) was “No GI mucosal injury” and the “PGE2 levels diminished compared to control” value (HT-29 cells PGE2 levels) was 81.1%. The PGE2 level (HT-29 cells PGE2 levels; control 95.6 pg/mL) was 18 pg/mL.
